Patent US9427444B2, “Pharmaceutical and cosmetic compositions for accelerated healing of wounds and other surface damages” (MITOTECH SA, priority 2007, dated 2016)

Legend:
LAR epithelial cell line = experiment: Epithelial layer movement into the wound in vitro; assay type: cell-based
Experimental: Along with fibroblast movement and contraction, in wound healing a formation plays an important role of new epithelial layers in the wound—so called reepithalialization. Study on this process in vitro was carried out using LAR epithelial cell line. […] Ability of cell to form tight “islands” and single epithelial layer also weren't disturbed. Studies on expression of intracellular contact protein E-cadherin specific for epithelium confirmed epithelial structure stability in presence of SkQ1. […] This effect was studied in vitro using the same mode that was used in fibroblast studies. […] Unlike fibroblasts, epithelial cells moved into the wound in a single layer with all characteristic morphology and intracellular contacts.

fibroblast culture = experiment: IF staining of cytoskeleton and fibronectin in fibroblast culture treated with SkQ1; assay type: cell-based, human
Description: It points to contraction activity and cell movement enhancement. […] This was done by IF staining of actin and myosin in fibroblast stress-fibrils, treated with SkQ1 and from control group.
Further on we analyzed a consistence of main extracellular matrix protein fibronectin in fibroblast culture, treated with SkQ1. […] Fibronectinic matrix forms as a result of both cell secretion and reorganization of matrix components present in culture in formation of serum. Fibronectin produced by fibroblasts has certain structural alterity that gives a possibility to construct selective antibodies.

[1] = test system: human subdermal diploid fibroblasts; experiment: Differentiation of human subdermal fibroblasts into myofibroblasts (cell square, unstriped muscle actin, vinculin contacts); assay type: cell-based
Description: Myofibroblasts emerge as result of normal fibroblast differentiation and in comparison to them have bigger size, better adherence to the substrate (in vivo to extracellular matrix, in vitro to plastic), different cytoskeleton structure and contractive activity.
Main myofibroblast marker is unstriped muscle actin form, which mediates its contraction activity and almost never can be found in normal fibroblasts.
Better adherence to the substrate is also a characteristic feature of myofibroblasts, it promotes its movement into wound and brace of wound edges. In our experiments we estimated number of tight contacts between cell and substrate, containing special focal adhesion protein vinculin.
It is important to notice that short incubation with SkQ1 for 1-2 hours is enough for induction of this transformation, and further a population of myofibroblasts is supported in a media without SkQ1 for at least 4-6 weeks.

[2] = test system: human fibroblast monolayer; experiment: Human fibroblast monolayer damage, model of wound in vitro; assay type: cell-based
Description: Human fibroblast monolayer damage—is a model of wound in vitro, as fibroblasts are basement of connective tissue, which structure falls with any injury or damage. It is known that fibroblasts are one of the first to enter wounded area that considerably determines its healing. Fibroblast monolayer was damaged with sterile scalpel; as a result a 2000 micron wide distant break appeared. Ability of fibroblasts to heal the wound was estimated by length of cell migration zone, appeared during certain time period (1 day) inside the wound. Cell migration zone length depends directly on healing speed of artificially given wound. Results of several different SkQ1 concentrations test are shown on FIG. 4.

CC1=C(C)C(=O)C(CCCCCCCCCC[P+](c2ccccc2)(c2ccccc2)c2ccccc2)=CC1=O.[Br-] [SkQ1]
actinic stress-fibrils in the cells (LAR epithelial cell line): significantly raised
cell movement into the wound (LAR epithelial cell line): significantly accelerates cell movement into the wound
morphological changes of epithelial cells (LAR epithelial cell line): didn't cause significant morphological changes
persistence of effect on epithelial cells after drug withdrawal (LAR epithelial cell line): continued long after drug withdrawal
cell skeleton reorganization, stress-fibrils (fibroblast culture; IF staining of actin and myosin): active cell skeleton reorganization with stress-fibril enhancement
fibronectin level (IF staining) (fibroblast culture; monolayer areas and cell migration zone): significant increase
intracellular expression of fibronectin (fibroblast culture; selective antibodies to fibroblast fibronectin): raises
incubation time enough for induction of transformation into myofibroblasts [1]: 1 to 2 h
average square value increase ([1]; SkQ1 20 nM, whole population): increases more then two-three fold
number of vinculin-containing contacts per cell ([1]; SkQ1 treated versus control cells, FIG. 3): increase of number of contacts per cell
average square of significant group of cells over control value (cell size distribution) ([1]; SkQ1 treatment, FIG. 2): 5-6 fold
unstriped muscle actin form (IF staining) in giant cells versus normal fibroblasts ([1]; after SkQ1 treatment): heavy increase
time myofibroblast population is supported in media without SkQ1 ([1]; after short incubation with SkQ1): 4-6 weeks
length of cell migration zone inside the wound ([2]; 1 day, 2000 micron wide break, FIG. 4): short period incubation with SkQ1 caused effect, which continued for a long time even without SkQ1
number of cell rows entered to the wound ([2]; 24 hours, FIG. 5): Injury healing acceleration
